Data as given in the supplement of paper PMC10307832.

Tests used:
Experiment in all cases: relative viability (nuclei count vs DMSO), 5 days (fraction); higher = more cells survive
[1] = compound: C[C@@]1(C(=O)Nc2ccc(F)nc2)CCCN1c1nc(Nc2cc(C3CC3)n[nH]2)c2cccn2n1 + Cc1nc(Nc2ncc(C(=O)Nc3c(C)cccc3Cl)s2)cc(N2CCN(CCO)CC2)n1 [Dasatinib] (partner 0.075 µM)
Procedure, shortened: (§1)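 Relative viability divides the nuclei count in treated wells by that in vehicle wells. Lung cancer cell lines were seeded in 1536-well plates, dosed by pin tool the next day, and fixed and stained after 5 days in one step with final 0.05% Triton X-100, 1% formaldehyde and 1 ug/ml Hoechst. Dosing was a single drug or a fixed anchor-drug dose plus five library-drug doses (not always all listed) in √10 steps, and values are medians of duplicate plates imaged at 4×.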

[2] = compound: CC1(C)CNc2cc(NC(=O)c3cccnc3NCc3ccncc3)ccc21 [Motesanib] + C[C@@H](Oc1cc(-c2cnn(C3CCNCC3)c2)cnc1N)c1c(Cl)ccc(F)c1Cl [Crizotinib] (partner 1 µM)
Procedure, shortened: as §1

[3] = compound: C[C@@]1(C(=O)Nc2ccc(F)nc2)CCCN1c1nc(Nc2cc(C3CC3)n[nH]2)c2cccn2n1 + CCNC(=O)c1noc(-c2cc(C(C)C)c(O)cc2O)c1-c1ccc(CN2CCOCC2)cc1 [Luminespib] (partner 0.01 µM)
Procedure, shortened: as §1

[4] = compound: C[C@@]1(C(=O)Nc2ccc(F)nc2)CCCN1c1nc(Nc2cc(C3CC3)n[nH]2)c2cccn2n1 + CC1(C)CCC(c2ccc(Cl)cc2)=C(CN2CCN(c3ccc(C(=O)NS(=O)(=O)c4ccc(N[C@H](CCN5CCOCC5)CSc5ccccc5)c(S(=O)(=O)C(F)(F)F)c4)cc3)CC2)C1 [Navitoclax] (partner 0.5 µM)
Procedure, shortened: as §1

| Cell Line | relative viability ([1]; first compound 0.04 µM) | relative viability ([1]; first compound 0.1265 µM) | relative viability ([1]; first compound 0.4 µM) | relative viability ([1]; first compound 1.265 µM) | relative viability ([2]; first compound 0.01 µM) | relative viability ([2]; first compound 0.03162 µM) | relative viability ([2]; first compound 0.1 µM) | relative viability ([2]; first compound 0.3162 µM) | relative viability ([2]; first compound 1 µM) | relative viability ([3]; first compound 0.04 µM) | relative viability ([3]; first compound 0.1265 µM) | relative viability ([3]; first compound 0.4 µM) | relative viability ([3]; first compound 1.265 µM) | relative viability ([4]; first compound 0.04 µM) | relative viability ([4]; first compound 0.1265 µM) | relative viability ([4]; first compound 0.4 µM) | relative viability ([4]; first compound 1.265 µM) |
| --- | --- | --- | --- | --- | --- | --- | --- | --- | --- | --- | --- | --- | --- | --- | --- | --- | --- |
| HOP-62 | 0.662 | 0.565 | 0.469 | 0.374 | 0.899 | 0.82 | 0.859 | 1.05 | 0.932 | 0.999 | 0.789 | 0.906 | 1.01 | 1.12 | 0.887 | 0.826 | 1.03 |
| IA-LM | – | – | – | – | 0.829 | 0.745 | 1.21 | 0.729 | 0.803 | – | – | – | – | 0.983 | 0.904 | 0.746 | 0.593 |
| LC-2-ad | 0.363 | 0.328 | 0.235 | 0.196 | 0.442 | 0.46 | – | 0.441 | 0.484 | 0.97 | 0.859 | 0.719 | 0.599 | 0.379 | 0.373 | 0.296 | 0.143 |
| LCLC-97TM1 | 0.54 | 0.224 | 0.229 | 0.134 | 0.362 | 0.429 | 0.373 | 0.469 | 0.486 | 0.342 | 0.272 | 0.23 | 0.378 | 0.117 | 0.32 | 0.196 | 0.324 |
| LCLC-103H | 0.412 | 0.35 | 0.237 | 0.174 | – | 1.13 | 0.986 | 1.08 | 1.15 | 0.92 | 0.766 | 0.733 | 0.927 | – | – | – | – |
| LK-2 | 0.217 | 0.184 | 0.155 | 0.229 | 0.232 | 0.234 | 0.231 | 0.249 | 0.217 | 0.159 | 0.204 | 0.174 | 0.169 | – | 0.843 | 0.368 | 0.494 |
| LOU-NH91 | 0.461 | 0.449 | 0.395 | 0.286 | 0.743 | 0.746 | 0.743 | 0.769 | 0.729 | 0.335 | 0.353 | 0.305 | 0.335 | 0.706 | 0.77 | 0.61 | 0.686 |
| LU99A | 0.409 | 0.257 | 0.219 | 0.197 | 0.518 | 0.477 | 0.493 | 0.549 | 0.574 | 0.244 | 0.246 | 0.197 | 0.181 | 0.652 | 0.71 | 0.491 | 0.574 |
| LXF-289 | 0.13 | 0.119 | 0.0865 | 0.0646 | 0.822 | 0.823 | 0.82 | 0.842 | 0.867 | 0.64 | 0.563 | 0.511 | 0.611 | 0.987 | 0.917 | 0.941 | 0.991 |
| NCI-H23 | 0.653 | 0.384 | 0.325 | 0.269 | 0.484 | 0.373 | – | 0.497 | 0.612 | 0.21 | 0.211 | 0.213 | 0.214 | 0.658 | 0.587 | 0.444 | 0.664 |
| NCI-H322M | 0.239 | 0.197 | 0.241 | 0.225 | 1.06 | 0.835 | 1.04 | 0.974 | 0.946 | 0.583 | 0.405 | 0.406 | 0.566 | 1.27 | 1 | 1.07 | 1.19 |
| NCI-H358 | 0.128 | 0.123 | 0.103 | 0.124 | 0.578 | 0.346 | 0.763 | 0.586 | 0.596 | 0.35 | 0.143 | 0.111 | 0.238 | – | – | – | – |
| NCI-H441 | 0.385 | 0.155 | 0.223 | 0.203 | 0.596 | 0.785 | 1.02 | 0.846 | 0.803 | 0.258 | 0.175 | 0.221 | 0.267 | 0.363 | 0.413 | 0.116 | 0.505 |
| NCI-H522 | 0.856 | 0.628 | 0.775 | 0.789 | – | – | – | – | – | 1.04 | 1.02 | 1.04 | 0.974 | – | – | – | – |
| NCI-H650 | 0.404 | 0.283 | 0.321 | 0.29 | 0.774 | 0.685 | 0.874 | 0.71 | 0.522 | 0.797 | 0.426 | 0.536 | 0.499 | – | – | – | – |
| NCI-H661 | 0.762 | 0.841 | 0.669 | 0.517 | – | 0.945 | 1.09 | 0.978 | 1.1 | 0.973 | 1.06 | 1.05 | 1.02 | – | – | – | – |
| NCI-H1299 | – | – | – | – | 0.938 | 0.978 | 0.951 | 0.949 | 0.936 | – | – | – | – | 1.08 | 0.976 | 1.04 | 1.02 |
| NCI-H1395 | 0.374 | 0.34 | 0.388 | 0.378 | – | – | – | – | – | 0.768 | 0.717 | 0.583 | 0.889 | 1.33 | 0.983 | 1.03 | 1.24 |
| NCI-H1563 | 0.404 | 0.413 | 0.343 | 0.323 | 0.867 | 0.855 | 0.906 | 0.804 | 0.914 | 0.545 | 0.506 | 0.547 | 0.528 | – | – | – | – |
| NCI-H1623 | 0.465 | 0.247 | 0.438 | 0.412 | – | – | – | – | – | 0.47 | 0.368 | 0.345 | 0.403 | – | – | – | – |
| NCI-H1703 | – | – | – | – | 0.826 | 0.545 | 0.303 | 0.155 | 0.172 | – | – | – | – | 1.25 | 1.02 | 0.783 | 0.743 |
| NCI-H1793 | 0.448 | 0.36 | – | 0.335 | – | – | – | – | – | 0.581 | 0.18 | – | 0.604 | 0.31 | 0.304 | 0.378 | 0.351 |
| NCI-H2342 | 0.356 | 0.26 | 0.294 | 0.264 | – | – | – | – | – | 0.63 | 0.606 | 0.505 | 0.499 | – | – | – | – |
| SW 900 | 0.555 | 0.32 | 0.507 | 0.346 | – | – | – | – | – | 0.18 | 0.198 | 0.188 | 0.155 | – | – | – | – |
